Eleven compounds from ChEMBL document CHEMBL1201862, “PubChem BioAssay data set” (2004) can be followed below.

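48-hour exposure; five concentrations; linearly interpolated endpoints. At the GI50, growth is halved.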 Activity calls are given as the source filed them. No stated cut-off is given here; in the data, active = GI50 up to about 1.1 µM and inactive = higher.

Test systems include CAKI-1; COLO 205; EKVX; HCT-116; HL-60; HOP-92; MCF7; MDA-MB-435; MOLT-4; NCI-H226; NCI-H460; OVCAR-5; OVCAR-8; RXF 393; SK-MEL-5; SN12C; SNB-19; SNB-75; UACC-257; HCT-15.
Holding throughout (assay): growth of human tumour cells (NCI), 48 h

For the compound `COC(=O)C1Cc2c(OC)ccc(OC)c2C(O)C1C(=O)OC` (centres undefined), the GI50 in the test on CAKI-1, in the test on COLO 205, with EKVX, with HCT-116, in the test with HL-60 and in the test on HOP-92 was > 100 µM (inactive) in each case. For the same compound, the GI50 in the test on MCF7, in the test on MDA-MB-435, in the test with MOLT-4, with NCI-H226, with NCI-H460 and in the test on OVCAR-5 was > 100 µM (inactive) each time. The GI50 with OVCAR-8, in the test with RXF 393, in the test on SK-MEL-5, in the test on SN12C, with SNB-19 and in the test on SNB-75 was > 100 µM (inactive) each time. Also, the GI50 in the test with UACC-257 was > 100 µM (inactive).
With `O=C(NCCCCCCNCc1cccc2ccccc12)Nc1cccc2ccccc12`, the GI50 in the test on CAKI-1 was > 100 µM (inactive); with COLO 205, > 100 µM (inactive); in the test on EKVX, > 100 µM (inactive); in the test with HCT-116, > 100 µM (inactive); in the test on HCT-15 it was over 100 µM; in the test on HL-60, > 100 µM (inactive). For the same compound, the GI50 in the test with HOP-92 was > 100 µM (inactive); in the test with MCF7 it was > 100 µM (inactive); with MDA-MB-435 it was > 100 µM (inactive); with MOLT-4 it was > 100 µM (inactive); in the test with NCI-H460, > 100 µM (inactive); in the test with OVCAR-5 it was 63.1 µM (inactive). For the same compound, the GI50 with OVCAR-8, with RXF 393, in the test with SK-MEL-5, with SN12C, in the test on SNB-19 and in the test with SNB-75 was > 100 µM (inactive) throughout. Moreover, the GI50 with UACC-257 was > 100 µM (inactive).
As to `COc1cc2nncc(SCc3ccc(Cl)c(Cl)c3)c2cc1OC`, the GI50 is > 73.8 µM (inactive) with CAKI-1; > 100 µM (inactive) with COLO 205; > 100 µM (inactive) in the test on EKVX; > 100 µM (inactive) in the test with HCT-116; over 31.3 µM with HCT-15; > 50.8 µM (inactive) in the test on HL-60. Further, the GI50 in the test with HOP-92 was > 45.8 µM (inactive); with MCF7, 89.5 µM (inactive); in the test with MDA-MB-435, > 100 µM (inactive); in the test on MOLT-4, > 100 µM (inactive); in the test with NCI-H226, > 100 µM (inactive); in the test with NCI-H460, > 72.3 µM (inactive). In addition, the GI50 with OVCAR-5 is 98.4 µM (inactive); with OVCAR-8, > 100 µM (inactive); in the test on RXF 393 it was 35.3 µM (inactive); in the test with SK-MEL-5, > 100 µM (inactive); with SN12C, > 100 µM (inactive); with SNB-19, 45.9 µM (inactive). Also, the values for the GI50 with SNB-75 and with UACC-257 were 24.4 µM (inactive) and > 56.4 µM (inactive), respectively.
Turning to `COC(=O)C1=C(O)C(C(=O)OC)C2CC(=O)CC1C2(C)C` (centres undefined), the GI50 in the test on CAKI-1 was > 100 µM (inactive); in the test on COLO 205, > 100 µM (inactive); in the test with EKVX, > 100 µM (inactive); in the test with HCT-116, > 100 µM (inactive); with HCT-15, over 100 µM; in the test on HL-60 it was > 100 µM (inactive). In addition, the GI50 with HOP-92, in the test with MCF7, in the test on MDA-MB-435, with MOLT-4, in the test with NCI-H226 and with NCI-H460 was > 100 µM (inactive) throughout. The GI50 in the test with OVCAR-5, with OVCAR-8, in the test with RXF 393, with SK-MEL-5, in the test with SN12C and with SNB-19 was > 100 µM (inactive) each time. For the same compound, the GI50 in the test on SNB-75 is 88.9 µM (inactive); with UACC-257, > 100 µM (inactive).
For the compound `CNC(=O)OC(COC)CN1CCN(c2ccccc2C)CC1` (centres undefined), the GI50 was > 10 µM (inactive) in the test on CAKI-1; > 10 µM (inactive) in the test with COLO 205; > 10 µM (inactive) in the test on EKVX; > 10 µM (inactive) in the test with HCT-116; over 10 µM in the test on HCT-15; > 10 µM (inactive) in the test with HL-60. Further, the GI50 in the test with HOP-92, in the test with MCF7, with MDA-MB-435, in the test on MOLT-4, with NCI-H226 and with NCI-H460 was > 10 µM (inactive) in each case. In addition, the GI50 with OVCAR-8, with RXF 393, with SK-MEL-5, with SN12C, in the test on SNB-19 and in the test on SNB-75 was > 10 µM (inactive) throughout. Moreover, the GI50 with UACC-257 is > 10 µM (inactive).
As to `Cc1ccc(NC=O)c(-c2c(N)[nH]c(=S)[nH]c2=O)c1`, the GI50 was > 100 µM (inactive) in the test with CAKI-1; > 100 µM (inactive) with COLO 205; > 100 µM (inactive) in the test with EKVX; > 100 µM (inactive) in the test on HCT-116; over 100 µM with HCT-15; > 100 µM (inactive) in the test with HL-60. Also, the GI50 in the test on HOP-92 was > 100 µM (inactive); in the test with MCF7, > 100 µM (inactive); in the test with MDA-MB-435, 94 µM (inactive); in the test with MOLT-4 it was > 100 µM (inactive); in the test on NCI-H226, > 100 µM (inactive); with OVCAR-5, > 100 µM (inactive). Further, the GI50 in the test on OVCAR-8, with RXF 393, with SK-MEL-5, with SN12C, in the test with SNB-19 and in the test with SNB-75 was > 100 µM (inactive) in each case. In addition, the GI50 with UACC-257 is > 100 µM (inactive).
With `CCOC(=O)c1cc2c(ccc3cc(C(=O)OCC)[nH]c32)[nH]1`, the GI50 in the test with CAKI-1 is 29 µM (inactive); with COLO 205 it was 65.3 µM (inactive); with EKVX, > 100 µM (inactive); with HCT-116, 41.9 µM (inactive); in the test with HCT-15, 33.3 µM; in the test with HL-60 it was > 10 µM (inactive). In addition, the GI50 in the test with HOP-92 is 78.7 µM (inactive); in the test with MCF7 it was 50.2 µM (inactive); in the test on MDA-MB-435 it was 15.3 µM (inactive); in the test on MOLT-4 it was 35.8 µM (inactive); in the test on NCI-H460, 43.9 µM (inactive); in the test with OVCAR-5, > 100 µM (inactive). Also, the GI50 in the test on RXF 393 was 15.8 µM (inactive); in the test with SK-MEL-5, 25.8 µM (inactive); in the test with SN12C, 25.9 µM (inactive); in the test on SNB-19, 25.4 µM (inactive); in the test with SNB-75, 16.8 µM (inactive); in the test with UACC-257 it was > 100 µM (inactive).
Regarding `O=S(=O)(O)c1cc(/N=[N+](\[O-])c2cc(S(=O)(=O)O)c3ccccc3c2)cc2ccccc12`, the GI50 in the test with CAKI-1 is 23.1 µM (inactive); with COLO 205 it was > 100 µM (inactive); with EKVX it was 39.4 µM (inactive); in the test with HCT-116 it was > 100 µM (inactive); in the test on HCT-15, over 100 µM; with HL-60 it was 30 µM (inactive). For the same compound, the GI50 in the test with HOP-92 was > 100 µM (inactive); in the test with MCF7 it was 30.1 µM (inactive); with MDA-MB-435, > 100 µM (inactive); in the test on NCI-H226 it was > 100 µM (inactive); in the test with NCI-H460, > 100 µM (inactive); in the test on OVCAR-5 it was 32.5 µM (inactive). In addition, the GI50 with OVCAR-8 was > 100 µM (inactive); with RXF 393, 43.5 µM (inactive); in the test on SK-MEL-5 it was 17.9 µM (inactive); in the test on SN12C it was 23.6 µM (inactive); with SNB-19 it was 46.7 µM (inactive); in the test on SNB-75, 16.3 µM (inactive). Further, the GI50 in the test on UACC-257 is 51.1 µM (inactive).
For `COc1c(O)cc2c(c1O)C(=O)/C(=C/c1ccc(O)cc1)CO2`, the GI50 is 22.2 µM (inactive) in the test on CAKI-1; 17.6 µM (inactive) in the test on COLO 205; 28.8 µM (inactive) with EKVX; 14.8 µM in the test with HCT-15; 30.1 µM (inactive) with HL-60; 36.1 µM (inactive) with HOP-92. The GI50 is 34.7 µM (inactive) in the test on MCF7; 33.6 µM (inactive) with MDA-MB-435; 36 µM (inactive) in the test on MOLT-4; 30.1 µM (inactive) in the test with NCI-H460; 29 µM (inactive) in the test on OVCAR-5; 17.9 µM (inactive) in the test on OVCAR-8. In addition, the GI50 in the test with RXF 393 was 33.7 µM (inactive); in the test on SK-MEL-5, 22 µM (inactive); in the test on SN12C, 23 µM (inactive); in the test with SNB-19 it was 30.8 µM (inactive); in the test on SNB-75, 21.2 µM (inactive); in the test on UACC-257, 31.9 µM (inactive).
Consider `Cc1ccc(C2=Nn3c(nc4sc(-c5ccccc5)cc4c3=O)SC2)cc1`, for which the GI50 in the test on CAKI-1 is > 100 µM (inactive); with COLO 205 it was > 100 µM (inactive); with EKVX, > 100 µM (inactive); in the test on HCT-116 it was > 100 µM (inactive); in the test with HCT-15, over 100 µM; in the test on HL-60 it was > 100 µM (inactive). In addition, the GI50 in the test with HOP-92, with MCF7, in the test with MDA-MB-435, with MOLT-4, in the test with NCI-H226 and with NCI-H460 was > 100 µM (inactive) in each case. The GI50 was > 100 µM (inactive) in the test on OVCAR-5; > 100 µM (inactive) in the test with OVCAR-8; > 10 µM (inactive) in the test with RXF 393; > 100 µM (inactive) in the test with SK-MEL-5; > 100 µM (inactive) with SN12C; > 100 µM (inactive) with SNB-75. Also, the GI50 with UACC-257 is > 100 µM (inactive).
In the case of `ClCCCN(CCCCl)c1ccc(/C=N/c2cccc(Cl)c2)cc1`, the GI50 in the test on CAKI-1 was 0.652 µM (active); in the test with COLO 205, 47.6 µM (inactive); in the test with EKVX, 0.637 µM (active); in the test on HCT-116 it was 32.5 µM (inactive); in the test with HCT-15, 18.1 µM; in the test on HL-60, 12.6 µM (inactive). Also, the GI50 is 29.2 µM (inactive) in the test on HOP-92; 23.5 µM (inactive) in the test on MCF7; 28.8 µM (inactive) in the test with MDA-MB-435; 14.4 µM (inactive) in the test with MOLT-4; 2.03 µM (inactive) in the test with NCI-H226; 9.55 µM (inactive) with NCI-H460. For the same compound, the GI50 with OVCAR-5 is 22.1 µM (inactive); in the test on OVCAR-8, 6.95 µM (inactive); in the test with RXF 393, 14.2 µM (inactive); with SN12C, 10.4 µM (inactive); in the test on SNB-19, 30.1 µM (inactive); in the test with SNB-75, 8.93 µM (inactive). Besides, the GI50 in the test with UACC-257 is 29.4 µM (inactive).
